Assay results reported in patent US7732431B2, “Pharmaceutical compositions comprising trimegestone” (aventis pharma SA, priority 1999, dated 2010).

Assay: Storage stability and light sensitivity of trimegestone in powder form
Format: physicochemical
Procedure: Trimegestone is thus a molecule which is in itself stable. However, stability problems can appear during the preparation of tablets or if conventional pharmaceutical compositions comprising trimegestone are stored at 40° C. (dry or damp medium) or under more severe conditions. In particular, the appearance of (20S)-17alpha-methyl-7beta-(1-hydroxy-2-oxo-propyl)-oestra-4,9-dien-3-one, the 21R epimer of trimegestone, or even of oxopromegestone is observed under these conditions.

C[C@H](O)C(=O)[C@@]1(C)CC[C@H]2[C@@H]3CCC4=CC(=O)CCC4=C3CC[C@@]21C [Trimegestone, (21S)-17alpha-methyl-17beta-(2-hydroxy-1-oxo-propyl)-oestra-4,9-dien-3-one]
Sensitivity to light: very low sensitivity to light
Stability after storage (3 months at 70° C. under an inert gas): stable
Stability after storage (6 months in a glass pill box at 50° C.): stable
